Reference: US4132847A, “4-Pyrone prostaglandin antagonists” (Pfizer Inc., priority 1977, dated 1979)

Test system: accumulation of c-AMP by PGE2
Assay: Antagonism of PGE2-enhanced c-AMP levels in mouse thymus cells (radioimmunoassay)
Assay type: cell-based
Description: A suitable test for this purpose is based on the enhancement of cyclic AMP (adenosine-3',5'-monophosphate) levels in tissues due to adenyl cyclase stimulated by the action of prostaglandins of the PGE2 type. An exemplification of such a test used to determine the antagonist activity of the compounds of the present invention is as follows. A BC 57/BL (Jackson Laboratories) mouse is sacrificed and the thymus gland removed and teased apart to provide thymus cells which are suspended in a culture medium. The degradation of c-AMP is blocked by addition of 4-(3-butoxy-4-methoxybenzyl)-2-imidazolidinone (Hoffman-LaRoche, Ro 20-1724), a c-AMP phosphodiesterase inhibitor. A measured dose of the compound under test is added to the suspension of cells and the suspension is incubated at 37° C. for ten minutes. A measured dose of PGE2 is added to the suspension, which is then incubated for a further period of 30 minutes. The cells are then centrifuged, washed and the c-AMP extracted with ethanol. The ethanol extract is evaporated to dryness, redissolved in buffer solution and the c-AMP level determined by a radioimmunoassay, see Zimmerman et al, Anal. Biochem. 71, 79 (1976) and Steiner et al, J. Biol. Chem. 247, 1106 (1972). Comparison of the enhancement of c-AMP levels produced by PGE2 alone and by PGE2 together with the compound under test allow determination of the antagonist activity.
An example of the results from this test are those obtained with 2-(3-hydroxy-trans-1-octenyl)-3-(5-carboethoxypentyloxy)-4-pyrone. The initial c-AMP level of the cell culture was measured as 1.9 ± 0.7 picomole c-AMP/10^7 cells. Incubation with 10^-5 M PGE2 alone enhanced the level to 88 ± 7 picomole c-AMP/10^7 cells. By comparison, when the cells were incubated for ten minutes with 7 × 10^-5 M of the test compound the c-AMP level was measured at 2 ± 0.1 picomole c-AMP/10^7 cells. Following incubation for 30 minutes with 10^-5 M PGE2 the level was measured as 51 ± 5 picomole c-AMP/10^7 cells. Similarly, in a second experiment, after ten minutes incubation with 7 × 10^-6 M of the test compound, the c-AMP level was measured at 1.4 ± 0.2 picomoles c-AMP/10^7 cells; after 30 minutes incubation with 10^-5 M PGE2 the c-AMP level was measured as 69 ± 8 picomoles c-AMP/10^7 cells. […] Both of these compounds are well known in the art as prostaglandin antagonists.

## CCCCCC(O)/C=C/c1occc(=O)c1OCCCCCC(=O)OCC (racemic) [2-[(3RS)-3-hydroxy-trans-1-octenyl]-3-(5-carboethoxypentyloxy)-4-pyrone]
7 × 10^-5 M test compound, then 30 minutes with 10^-5 M PGE2 (PGE2 alone 88 ± 7)
  c-AMP level: 51 ± 5 picomole c-AMP/10^7 cells
Second experiment, 7 × 10^-6 M test compound, then 30 minutes with 10^-5 M PGE2
  c-AMP level: 69 ± 8 picomoles c-AMP/10^7 cells
Second experiment, ten minutes with 7 × 10^-6 M test compound, before PGE2
  c-AMP level: 1.4 ± 0.2 picomoles c-AMP/10^7 cells
Thymus cells incubated ten minutes with 7 × 10^-5 M test compound, before PGE2
  c-AMP level: 2 ± 0.1 picomole c-AMP/10^7 cells

## CCCCCCC#C[C@H]1CCC[C@@H]1OCCCCCC(=O)O [7-oxa-13-prostynoic acid, reference compound]
Mus musculus, concentration of 10^-4 M, same test conditions
  inhibition at 100 µM: 45%

## CCCCC[C@H](O)/C=C/[C@H]1[C@H](O)CC(=O)[C@@H]1C/C=C\CCCC(=O)O [PGE2, reference compound]
Incubation with 10^-5 M PGE2 alone (initial level 1.9 ± 0.7)
  c-AMP level: 88 ± 7 picomole c-AMP/10^7 cells

## CC(=O)NNC(=O)N1Cc2ccccc2Oc2ccc(Cl)cc21 [SC-19220, reference compound]
Mus musculus, 5 × 10^-5 M, same test conditions
  inhibition at 50 µM: 30%
